Series [1] relates to Mycobacterium tuberculosis. Briefly: Antimicrobial activity against Mycobacterium tuberculosis H37Rv by alamar blue assay. Format: functional. (In general: The colour change of resazurin is a common sign of viable cells or microbes.)
A short description of series [2]: Cytotoxicity against african green monkey Vero cells. It counts as cell-based. The note with it: chlorocebus sabaeus.
Series [3] relates to Mycobacterium tuberculosis. Briefly: Antimicrobial activity against drug-susceptible Mycobacterium tuberculosis isolate by alamar blue assay. Format: functional.

Values after ≈ are worked out from the molar mass of the structure shown.

Consider `CC1(C)CC[C@]23CO[C@@]4(CC[C@@H]5[C@@]6(C)CC[C@H](O)C(C)(C)[C@@H]6CC[C@@]5(C)[C@]4(C)CC2=O)[C@@H]3C1` [AEGICERIN], for which the MIC in series [1] stood at 3.1 µg/mL (≈ 6.79 µM); in series [3], 1.6 µg/mL (≈ 3.5 µM). Moreover, in series [2], the GI50 was more than 40 µg/mL.
Take `NNC(=O)c1ccncc1` [ISONIAZID]: the MIC in series [1] and in series [3] was 0.125 µg/mL (≈ 0.911 µM) in each case.
As to `CC1(C)CC[C@]23CO[C@@]4(CC[C@@H]5[C@@]6(C)CC[C@H](O)C(C)(C)[C@@H]6CC[C@@]5(C)[C@]4(C)C[C@H]2O)[C@@H]3C1` [PROTOPRIMULAGENIN A], the MIC in series [1] and in series [3] was 200 µg/mL (≈ 436 µM) in each case.
For the compound `CO[C@H]1/C=C/O[C@@]2(C)Oc3c(C)c(O)c4c(O)c(c(/C=N/N5CCN(C)CC5)c(O)c4c3C2=O)NC(=O)/C(C)=C\C=C\[C@H](C)[C@H](O)[C@@H](C)[C@@H](O)[C@@H](C)[C@H](OC(C)=O)[C@@H]1C` [RIFAMPIN], the MIC in series [1] and in series [3] was 0.063 µg/mL (≈ 0.0766 µM) each time.

For orientation: MIC means the smallest concentration in the dilution series that meets the test's criterion for growth inhibition. In general, GI50 refers to the concentration that inhibits growth by half.

Values taken from ChEMBL document CHEMBL1157956, “Aegicerin, the first oleanane triterpene with wide-ranging antimycobacterial activity, isolated from Clavija procera” (J Nat Prod, 2006).
